Measured values taken from patent publication US20080021044A1 (priority 2006, published 2008).

Experiment: Solubility of the compound of formula (I) as a function of time in aqueous solvents (HPLC)
Format: physicochemical
Settings: thermodynamic from solid; for solubility at 1 h / solubility at 2 h / solubility at 4 h / solubility at 24 h / solubility at 48 h / solubility at 0.5 h: 25° C. water bath, agitated; for solubility at 0.5 h: ½ hr; for solubility at 7 days: kept at room temperature with no agitation
Description: The sample vials were pulled out at each time point, the pH was measured and the sample was filtered a 0.45 μm PTFE membrane filter. The filtrate was appropriately diluted with the dilution solvent and the concentration of the compound was measured using HPLC. HPLC conditions were as follows: Method: Isocratic method, 70% mobile phase A −30% mobile phase B; Column: Supelco Discovery HS-C18, 3 μm, 4.6×150mm; Mobile Phase A: 0.05% TFA in water; B: 0.05% TFA in acetonitrile; Flow rate: 1.0 mL/min; Detection: UV: Wavelength: 240 nm, bandwidth 4 nm; Reference wavelength: 450 nm, bandwidth 80 nm; Run time: 6 min; Injection volume: 10 μL.

[1] = aqueous buffer, 0.1N NaOH (pH ˜12.8)
[2] = aqueous buffer, borate buffer pH 8
[3] = aqueous buffer, borate buffer pH 10
[4] = aqueous buffer, citrate buffer pH 2
[5] = aqueous buffer, citrate buffer pH 4
[6] = aqueous buffer, citrate buffer pH 6
[7] = simulated gastric fluid, 0.1N HCl
[8] = simulated intestinal fluid (SIF), fassgf or other biorelevant, SIF (pH ˜6.75)

Cc1cnc(NCC(F)(F)c2ccccc2)c(=O)n1CC(=O)NCCONC(=N)N [compound of formula (I), N-[2-[[(diaminomethylene)amino]oxy]ethyl]-3-[(2,2-difluoro-2-phenylethyl)amino]-6-methyl-2-oxo-1(2H)-pyrazineacetamide]
solubility at 1 h [1]: 980 µg/mL
solubility at 2 h [1]: 980 µg/mL
solubility at 4 h [1]: 1000 µg/mL
solubility at 24 h [1]: 1000 µg/mL
solubility at 48 h [1]: 990 µg/mL
solubility at 0.5 h [1]: 920 µg/mL
solubility at 4 h [2]: 1300 µg/mL
solubility at 24 h [2]: 1200 µg/mL
solubility at 48 h [2]: 1200 µg/mL
solubility at 4 h [3]: 1000 µg/mL
solubility at 24 h [3]: 1000 µg/mL
solubility at 48 h [3]: 1000 µg/mL
solubility at 1 h [4]: 8700 µg/mL
solubility at 2 h [4]: 8800 µg/mL
solubility at 4 h [4]: 10400 µg/mL
solubility at 24 h [4]: 6900 µg/mL
solubility at 48 h [4]: 7500 µg/mL
solubility at 7 days [4]: 4000 µg/mL
solubility at 0.5 h [4]: 7600 µg/mL
solubility at 1 h [5]: 2400 µg/mL
solubility at 2 h [5]: 2800 µg/mL
solubility at 4 h [5]: 2500 µg/mL
solubility at 24 h [5]: 2700 µg/mL
solubility at 48 h [5]: 2700 µg/mL
solubility at 0.5 h [5]: 2100 µg/mL
solubility at 1 h [6]: 1800 µg/mL
solubility at 2 h [6]: 1800 µg/mL
solubility at 4 h [6]: 2000 µg/mL
solubility at 24 h [6]: 1600 µg/mL
solubility at 48 h [6]: 1500 µg/mL
solubility at 7 days [6]: 1300 µg/mL
solubility at 0.5 h [6]: 2100 µg/mL
solubility at 1 h [7]: 40200 µg/mL
solubility at 2 h [7]: 40900 µg/mL
solubility at 4 h [7]: 43000 µg/mL
solubility at 24 h [7]: 40400 µg/mL
solubility at 48 h [7]: 39200 µg/mL
solubility at 7 days [7]: 26900 µg/mL
solubility at 0.5 h [7]: 31600 µg/mL
solubility (simulated intestinal fluid (SIF), 25 °C, pH 6.75, fassgf or other biorelevant): 2700 to 2800 µg/mL
solubility at 4 h [8]: 2800 µg/mL
solubility at 24 h [8]: 2700 µg/mL
solubility at 48 h [8]: 2700 µg/mL
solubility at 4 h (water (pH ˜9)): 1100 µg/mL
solubility at 24 h (water (pH ˜9)): 1100 µg/mL
solubility at 48 h (water (pH ˜9)): 1100 µg/mL
